# According to patent US20240335465A1 (University of Virginia Patent Foundation, priority 2021, published 2024):
# Assays:
# HEK293-TrLR cells = assay: HDR and NHEJ assay using Traffic Light Reporter; format: cell-based, human
# Description: TrLR-integrated HEK293 cells were selected through exposure to 5 μg/ml puromycin for 2 weeks. […] 8 hours following this procedure, cells were transfected with pCVL SFFV d14GFP Donor (Addgene Cat #31475), pCBASceI (Addgene Cat #26477)), or Donor+SceI using Lipofectamine 3000. 72 hours post-transfection, cells were trypsinized, collected, and analyzed with an Attune NxT flow cytometer (Thermofisher). To quantify the DNA repair events, ˜10,000-30,000 cells were acquired on an Attune NxT cytometer and analyzed using FCS Express software. Single cell events were determined by gating on the area against the width of the forward scatter pulse signal. Debris removal was performed by excluding events with very low forward and side scatter. For determining % of GFP and mCherry positive cells we established positive and negative populations using mock transfections as negative controls and GFP or mCherry transfected samples as Fluorescence Minus One controls.
# U2OS-STING cells = assay: RIF1 and phospho-53BP1 foci immunofluorescence; format: cell-based, human; conditions: pretreated with cGAMP, then etoposide or camptothecin
# Description: Immunofluorescence Staining: 16,500 adherent cells/cm^2 were plated on a gelatin coated 8-chamber slide (VWR, Catalogue #62407-296) and treated as indicated. Media was removed and cells were washed with 1×PBS with Ca^2+/Mg^2+ and fixed with 4% PFA for 20 minutes. Fixed cells were permeabilized with PBS+0.1% Triton-X and washed 3 times with PBS+0.1% Tween20. After treatment as indicated, non-adherent THP1 cells were collected by centrifugation, washed in cold PBS and fixed in PFA. Post-fixation, they were washed with PBS, spotted on gelatin coated “PTFE” Printed Slides (Electron Microscopy Sciences, Cat #63424-06), and air-dried. For γH2AX staining, permeabilized cells were blocked in Serum-free DAKO Protein Block (Agilent, Catalogue #X0909) for 1 hr at room temperature. Cells were incubated in primary antibody (γH2AX, 1:500; anti-HA, 1:100; Table 1) in DAKO antibody diluent at 4° C. overnight on a rocker platform. U2OS-STING cells undergoing Rad51 staining were first fixed in methanol for 20 minutes in −20° C., blocked for 1 hr with donkey block (2% normal donkey serum, 1% BSA, 0.1% Triton X 100, 0.05% Tween20, 0.05% Sodium Azide in PBS), then finally incubated in an anti-Rad51 antibody overnight at 4° C. (Bio-academia Cat #70-001, 1:6000 in 5% milk in TBST). […]
# [1] = system: one-cell fertilized C57BL/6J embryos; assay: CRISPR/Cas9 mediated gene editing in mouse embryos; format: cell-based; conditions: Rosa26 locus, 1 fmole/embryo cGAMP
# Description: CRISPR/Cas9 mediated gene editing in mouse embryos: Target sites were selected and gRNAs for these target sites were synthesized via in vitro transcription followed by column clean up and ethanol precipitation purification. One-cell fertilized C57BL/6J embryos were microinjected with a mixture of gRNA (50 ng/μl), ssODN (50 ng/μl, IDT, Table 2), and Cas9 protein (40 ng/μl, PNA Bio). […] Injected embryos were cultured to blastocysts then lysed to isolate genomic DNA. The edited locus (Rosa26) was amplified via PCR, and samples were indexed, pooled and run on a MiSeq Nano 2×250 Reagent Kit. Demultiplexed data was analyzed with CRISPResso (Pinello et al., 2016). Reads ambiguously categorized as “HDR/NHEJ” were manually sorted using a window 30 bp wide flanking the cut site, where reads identical to the expected HDR sequence were recategorized accordingly. Samples with fewer than 100 reads were excluded from analysis.
# PARP = PARP activity assay; format: cell-based, human
# Description: Post cGAMP treatment, cells were collected by centrifugation and washed with cold PBS once and resuspended in Cell Extraction Buffer. PARP activity was measured using the Chemiluminescent Assay Kit (R&D, Catalog Number: 4685-096-K) following manufacturer's protocol.
# Crassostrea virginica = assay: DDR in oysters after adductor muscle injection; format: in vivo; conditions: hemocytes; cGAMP 25 μg/50 gm, doxorubicin 1 μg/50 gm oyster weight, 16 hours
# Description: Oysters: Wild adult eastern oysters (Crassostrea virginica) of both male and female sexes ranging from 2 cm-7 cm in length (1 to 3 years in age) were collected from a natural oyster reef on Virgnia's Eastern Shore. Following collection, the diploid oysters were placed on ice and transported approximately 3 h to the University of Virginia main campus in Charlottesville, VA. There they were stored in an aerated aquarium containing water supplemented with Instant Ocean® Aquarium Sea Salt (50 gm/l). […] Treated oysters were kept at 4° C. in the dark for 16 hours after which they were shucked, had their hemolymph/tissues harvested for analysis by western blotting, and dead oyster and shell were disposed of.
# Nematostella vectensis = assay: DDR in starlet sea anemones; format: in vivo; conditions: whole animals; cGAMP in digitonin solution 10 minutes; doxorubicin 2 μM; 16 hours
# Description: Starlet sea anemones: Wild type, laboratory maintained, Self-sustaining Nematostella vectensis culture containing of 3-6 months old male and female animals (Putnam et al., 2007) was a kind gift from Timothy J. Jegla (Penn State University Department of Biology). They were maintained in 6-well plates containing water with Instant Ocean® Aquarium Sea Salt (50 gm/l) and fed brine shrimp. […] Permeabilization solution was removed and the animals returned to maintenance sea salt water. Doxorubicin was added to the maintenance sea salt water to a final concentration of 2 μM. 16 hours post treatment. N. vectensis were collected and washed once with cold PBS before the addition of 200 μl RIPA buffer. Samples were homogenized by sonication and centrifuged at 4° C. to remove debris. Soluble lysates were quantified for protein analysis by western blot.
# DDR signaling = DDR signaling immunoblotting in primary mouse embryonic fibroblasts
smiles,measurement,setting,value
"Nc1nc2c(ncn2[C@@H]2O[C@@H]3COP(=O)(O)O[C@H]4[C@@H](O)[C@H](n5cnc6c(N)ncnc65)O[C@@H]4COP(=O)(O)O[C@@H]2[C@@H]3O)c(=O)[nH]1 [cGAMP, cyclic guanosine monophosphate-adenosine monophosphate]",HDR suppression by cGAMP in rucaparib-pretreated cells,HEK293-TrLR cells; 1 μM Rucaparib,ineffective at HDR suppression in cells pretreated with rucaparib
same,"HDR in ATM inhibitor treated cells, mock vs. cGAMP",HEK293-TrLR cells; 25 μM KU-55933,still suppressed HDR
same,HDR frequency,"HEK293-TrLR cells; I-SceI with donor, 72 hours",significantly reduced the prevalence of HDR
same,NHEJ frequency,"HEK293-TrLR cells; I-SceI, 72 hours",unaffected in either case
same,RIF1 and phospho-53BP1 foci formation,U2OS-STING cells,augmented the RIF1 and phospho-53BP1 foci formation
same,CRISPR/Cas9-mediated HDR editing,[1],significantly diminished
same,non-homologous end joining (NHEJ),[1],unaffected
same,total editing frequency,[1],unaffected
same,PARP enzymatic activity in cell lysates,"PARP; THP1, cGAMP 6 hours, Rucaparib 10 μM, 6 hr",reduction in the PARP enzymatic activity
same,STING dependence of cGAMP-induced reduction in PARP enzymatic activity,PARP; WT and STING−/− THP1,dependent on STING
same,TBK1 phosphorylation (pTBK1),Crassostrea virginica,TBK1 phosphorylation
same,γH2AX,Crassostrea virginica,elevated levels of γH2AX
same,TBK1 phosphorylation (pTBK1),Nematostella vectensis,TBK1 phosphorylation
same,γH2AX,Nematostella vectensis,elevated levels of γH2AX
same,cGAMP-induced H2AX phosphorylation,DDR signaling; Ifnar1−/− or Stat2−/− primary MEFs,unimpaired
same,activation of DDR marker γH2AX,"DDR signaling; Irf3−/− primary MEFs, 16 hours",proceeded normally
same,activation of DDR by cGAMP (γH2AX),"DDR signaling; Sting−/− primary MEFs, 16 hours",abrogated by the deletion of STING
same,DDR activation (γH2AX),"DDR signaling; WT primary MEF, Pam3CSK4 500 ng/ml 6 hours, HT-DNA 4 ug/6-well 6 hours, 5′ppp-dsRNA 0.5 μg/6 well 6 hours, cGAMP 16 hours",activated the DDR
